This is an account of results in publication PMC5716981, “Inhibition of A2A Adenosine Receptor Signaling in Cancer Cells Proliferation by the Novel Antagonist TP455” (Frontiers in Pharmacology, 2017).

Structures can show the parent of a compound that is named as a salt.

For one assay, the system named is MRMT-1 cells. Kind of assay: DELFIA cell proliferation (BrdU) in MRMT-1 cells. It is filed as cell-based, rat. The settings on record: for inhibition of CGS21680-induced cell proliferation by signalling inhibitor: 10 μM inhibitor 30 min pretreatment; for inhibition of CGS21680-induced cell proliferation by signalling inhibitor / antagonism of CGS21680-induced cell proliferation: 100 nM CGS21680, 48 h; for effect on cell proliferation when tested alone: 48 h. The procedure:
(§1) Tumoral cell lines A375 (human skin malignant melanoma), A549 (adenocarcinomic human alveolar basal epithelial cells) and rat cell line MRMT-1 (rat breast carcinoma cells) were purchased from ATCC and were grown adherently at 37°C in 5% CO2/95% air. A375 and A549 were maintained in DMEM high glucose medium containing 10% fetal calf serum, penicillin (100 U/mL) and streptomycin ([…]) and MRMT-1 were grown in RPMI 1640 medium containing 10% fetal calf serum, penicillin (100 U/mL), streptomycin ([…]), and L-glutamine (2 mM). Adenosine receptor agonists and antagonists and inhibitors of kinases, were made up in dimethyl sulfoxide solution (DMSO) and then diluted in cell culture medium (0.1 max 0.2% of DMSO). An equal amount of DMSO was used in control cells (CTR).
(§2) The DELFIA assay was performed to determine cell proliferation according to the manufacturer’s protocol from PerkinElmer (Milan, Italy). The assay is a time-resolved fluoroimmunoassay based on the incorporation of BrdU into newly synthesized DNA strands of proliferating cells cultured in microliter plates. Incorporated BrdU is detected using a europium labeled monoclonal antibody and the fluorescence measured is proportional to the DNA synthesis in the cell population of each well. A375, A549, and MRMT-1 cells were cultured over night at 1000 cells/well in a 96-well plate (at a final volume of 100 μl per well), agonists and antagonists were added and the cells were incubated for 30′ before addition of the BrdU-Labeling solution 10 μl/well. The cells were then cultured for 24, 48, or 72 h. At the end of the incubation period, cells were fixed (fix solution 100 μl/well), added with 100 μl/well of Anti-BrdU-Eu (0.5 μg/ml) and incubated for 120 min at room temperature. After four washes, 200 μl of DELFIA Inducer were added at room temperature for 15 min and the Eu-fluorescence was detected through an Ensight Perkin Elmer-multimode plate reader (Perkin Elmer, Milan, Italy). Two kinds of controls were performed: the blank where no cells were added to the well but only culture medium and the background where no BrdU was added to the wells.

Another assay deals with A375 cells. Kind of assay: DELFIA cell proliferation (BrdU) in A375 cells. The assay is classed as cell-based, human. The settings on record: for inhibition of CGS21680-induced cell proliferation by signalling inhibitor: 10 μM inhibitor 30 min pretreatment; for inhibition of CGS21680-induced cell proliferation by signalling inhibitor / antagonism of CGS21680-induced cell proliferation: 100 nM CGS21680, 48 h; for effect on cell proliferation when tested alone: 48 h. The procedure:
as §1, §2

For another assay, the system named is pAKT. The assay is described as follows: AlphaScreen SureFire pAKT assay in MRMT-1, A375 and A549 cells. The assay is classed as cell-based, human and rat. The settings on record: for inhibition of CGS21680-mediated AKT phosphorylation: 10 μM inhibitor, 100 nM CGS 21680, MRMT-1, A375 and A549 cells; for antagonism of CGS21680-induced AKT phosphorylation: 100 nM CGS21680 10 min. The procedure: AlphaScreen SureFire phospho(p)ERK1/2(Thr202/Tyr204), pJNK1/3(pThr183/Tyr185), and p-AKT1/2/3 (pThr308) assay kits (Perkin Elmer, Milan, Italy) were utilized. Upon kinase phosphorylation and excitation at 680 nm, fluorescent signals at 615 nm are emitted. Cells were seeded in 100 μl culture medium into 96-well plates (30,000/well), and incubated at 37°C for 24 h. Cells were pretreated with various inhibitors and TP455 for 30 min. […] After agonist removal, lysis buffer was added, then donor and acceptor beads linked to specific anti-p-kinase- and anti-kinase-antibodies were dispensed, according to manufacturer instructions. Finally, fluorescent signals were detected through an Ensight Perkin Elmer-multimode plate reader (Perkin Elmer, Milan, Italy). Data were normalized to fold activation above basal p-kinase levels (=100). For inhibitor graphs, raw data were transformed into percentages relative to controls (basal level = 100%) in order to merge data from several experiments.
(In general: Alpha assays give light when donor and acceptor beads are brought close together.)

The next assay concerns A549 cells. Kind of assay: DELFIA cell proliferation (BrdU) in A549 cells. The assay is classed as cell-based, human. The conditions noted are these: for inhibition of CGS21680-induced cell proliferation by signalling inhibitor: 10 μM inhibitor 30 min pretreatment; for inhibition of CGS21680-induced cell proliferation by signalling inhibitor / antagonism of CGS21680-induced cell proliferation: 100 nM CGS21680, 24 h; for effect on cell proliferation: 100 nM. The procedure: as §1, §2

The next assay has as its system pERK1/2. Kind of assay: AlphaScreen SureFire pERK1/2 assay in MRMT-1, A375 and A549 cells. The assay is classed as cell-based, human and rat. The settings on record: for inhibition of CGS21680-mediated ERK1/2 phosphorylation: 10 μM inhibitor, 100 nM CGS 21680, MRMT-1, A375 and A549 cells; for antagonism of CGS21680-induced ERK1/2 phosphorylation: 100 nM CGS21680 5 min. The procedure: (§3) AlphaScreen SureFire phospho(p)ERK1/2(Thr202/Tyr204), pJNK1/3(pThr183/Tyr185), and p-AKT1/2/3 (pThr308) assay kits (Perkin Elmer, Milan, Italy) were utilized. Upon kinase phosphorylation and excitation at 680 nm, fluorescent signals at 615 nm are emitted. Cells were seeded in 100 μl culture medium into 96-well plates (30,000/well), and incubated at 37°C for 24 h. Cells were pretreated with various inhibitors and TP455 for 30 min. Then, receptors were maximally stimulated using 100 nM CGS 21680 and incubated for 5 min (ERK1/2, JNK1/2-MAPK) or 30 min (AKT) at 37°C. After agonist removal, lysis buffer was added, then donor and acceptor beads linked to specific anti-p-kinase- and anti-kinase-antibodies were dispensed, according to manufacturer instructions. Finally, fluorescent signals were detected through an Ensight Perkin Elmer-multimode plate reader (Perkin Elmer, Milan, Italy). Data were normalized to fold activation above basal p-kinase levels (=100). For inhibitor graphs, raw data were transformed into percentages relative to controls (basal level = 100%) in order to merge data from several experiments.

Another assay relates to pJNK1/2. The assay is described as follows: AlphaScreen SureFire pJNK1/2 assay in MRMT-1, A375 and A549 cells. The assay is classed as cell-based, human and rat. The settings on record: for inhibition of CGS21680-mediated JNK1/2 phosphorylation: 10 μM inhibitor, 100 nM CGS 21680, MRMT-1, A375 and A549 cells; for antagonism of CGS21680-induced JNK1/2 phosphorylation: 100 nM CGS21680 5 min. The procedure: as §3

For assay [1], the target named is T1, A2AARs (Homo sapiens, UniProt P29274). Kind of assay: [3H]ZM241385 competition binding in A549 lung carcinoma membranes.
T1 sequence (P29274 whole entry): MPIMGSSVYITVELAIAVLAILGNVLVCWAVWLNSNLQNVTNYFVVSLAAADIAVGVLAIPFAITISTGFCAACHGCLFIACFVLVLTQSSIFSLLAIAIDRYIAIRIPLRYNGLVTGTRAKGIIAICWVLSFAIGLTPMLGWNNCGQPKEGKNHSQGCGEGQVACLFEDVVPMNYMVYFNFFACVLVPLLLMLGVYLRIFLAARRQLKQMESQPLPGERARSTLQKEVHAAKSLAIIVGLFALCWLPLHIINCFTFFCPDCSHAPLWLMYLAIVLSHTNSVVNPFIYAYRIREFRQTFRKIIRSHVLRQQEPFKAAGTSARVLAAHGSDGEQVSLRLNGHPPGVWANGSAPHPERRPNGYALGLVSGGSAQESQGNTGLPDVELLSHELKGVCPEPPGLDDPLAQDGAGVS
Method: (§4) For membrane preparation the culture medium was removed. […] The cell suspension was homogenized with Polytron and the homogenate was spun for 10 min at 1000 g. The supernatant was then centrifuged for 30 min at 100,000g. The membrane pellet was resuspended in 50 mM Tris HCl buffer pH 7.4, 10 mM MgCl2. […] Then the suspension was frozen at -80°C.
(§5) At the end of the incubation, bound and free radioactivity were separated by filtering, in a Brandel cell harvester, the assay mixture through Whatman GF/B glass-fiber filters. The filter bound radioactivity was counted in a liquid Scintillation Counter Tri Carb Packard 2500 TR (Perkin-Elmer Life and Analytical Sciences, Boston, MA, United States).
(§6) LIGAND was also used to determine inhibitory binding constant (Ki) values from the competition binding experiments. All values in the figures and text are expressed as mean ± standard error (SE) of three independent experiments.
In assay [2] the target is T1, A2AARs. Kind of assay: [3H]ZM241385 competition binding in A375 melanoma membranes.
Method: as §4, §5, §6
Assay [3] addresses A2AARs (Rattus norvegicus, UniProt P30543). Kind of assay: biochemical.
Method: as §4, §5, §6
[4] abbreviates: 10 nM antagonist 30 min pretreatment, MRMT-1, A375 and A549 cells.
The mark [5] stands for this setting: 100 nM antagonist 30 min pretreatment.
Where [6] appears, read: 100 nM antagonist 30 min pretreatment, MRMT-1, A375 and A549 cells.
Setting [7] is: 100 nM, 0-60 min, MRMT-1, A375 and A549 cells.

Chain of A2AARs (Rattus norvegicus, UniProt P30543) (P30543 whole entry): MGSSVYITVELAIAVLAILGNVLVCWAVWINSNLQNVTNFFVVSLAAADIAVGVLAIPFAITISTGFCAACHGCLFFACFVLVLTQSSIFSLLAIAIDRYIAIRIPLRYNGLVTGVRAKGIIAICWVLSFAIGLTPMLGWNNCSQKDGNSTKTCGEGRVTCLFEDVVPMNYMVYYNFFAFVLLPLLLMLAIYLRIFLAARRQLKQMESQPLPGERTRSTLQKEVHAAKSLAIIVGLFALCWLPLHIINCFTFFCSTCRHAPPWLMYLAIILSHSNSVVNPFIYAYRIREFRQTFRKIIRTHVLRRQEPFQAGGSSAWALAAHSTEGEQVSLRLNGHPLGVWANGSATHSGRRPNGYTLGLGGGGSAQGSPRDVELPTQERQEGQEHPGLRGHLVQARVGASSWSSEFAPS

`COc1ccc2c(c1)CC[C@@H]1[C@@H]2CC[C@]2(C)[C@@H](NCCCCCCN3C(=O)C=CC3=O)CC[C@@H]12` [U73122, 1-[6-[[(17β)-3-Methoxyestra-1,3,5(10)-trien-17-yl]amino]hexyl]-1H-pyrrole-2,5-dione]: the “inhibition of CGS21680-induced cell proliferation by signalling inhibitor” value in the assay on MRMT-1 cells, in the assay on A375 cells and with A549 cells was “able to antagonize the stimulatory effect” each time. Further, the “inhibition of CGS21680-mediated AKT phosphorylation” value in the assay on pAKT is listed as “strongly reduced”. Further, the “inhibition of CGS21680-mediated ERK1/2 phosphorylation” value in the assay on pERK1/2 is recorded as “strongly reduced”. Further, the “inhibition of CGS21680-mediated JNK1/2 phosphorylation” value in the assay with pJNK1/2 is listed as “strongly reduced”.

In the case of `COc1ccccc1CNc1nc(N)c2nc(-c3ccco3)sc2n1` [TP455, 2-(2-furanyl)-N^5-(2-methoxybenzyl)[1,3]thiazolo[5,4-d]pyrimidine-5,7-diammine], the “effect on cell proliferation when tested alone” value is on record as “did not alter cell proliferation” with MRMT-1 cells (10 nM alone); “did not alter cell proliferation” in the assay on A375 cells (10 nM alone); “did not alter cell proliferation” with A549 cells (10 nM alone, 24 h). In addition, the “antagonism of CGS21680-induced cell proliferation” value in the assay on MRMT-1 cells (10 nM antagonist), in the assay with A375 cells (10 nM antagonist) and with A549 cells (10 nM antagonist) was “antagonized” in each case. Moreover, the “antagonism of CGS21680-induced AKT phosphorylation” value with pAKT (setting [4]) is recorded as “potently inhibited”. Also, the Ki – broadly, a measure of affinity in units of concentration, obtained from inhibition or displacement – at A2AARs [1] came to 5.3 pM; on A2AARs [2], 5.8 pM; on A2AARs [3] it was 0.0061 nM. The “antagonism of CGS21680-induced ERK1/2 phosphorylation” value in the assay on pERK1/2 (setting [4]) is recorded as “potently inhibited”. In addition, the “antagonism of CGS21680-induced JNK1/2 phosphorylation” value with pJNK1/2 (setting [4]) is given as “potently inhibited”.

`CC(=O)c1c(O)c(C)c(O)c(Cc2c(O)c3c(c(C(=O)C=Cc4ccccc4)c2O)OC(C)(C)C=C3)c1O` [rottlerin, 1-[6-[(3-Acetyl-2,4,6-trihydroxy-5-methylphenyl)methyl]-5,7-dihydroxy-2,2-dimethyl-2H-1-benzopyran-8-yl]-3-phenyl-2-propen-1-one]: the “inhibition of CGS21680-induced cell proliferation by signalling inhibitor” value with MRMT-1 cells, in the assay on A375 cells and in the assay with A549 cells was “able to antagonize the stimulatory effect” in each case. Besides, in the assay with pAKT, the “inhibition of CGS21680-mediated AKT phosphorylation” value is “strongly reduced”. For the same compound, the “inhibition of CGS21680-mediated ERK1/2 phosphorylation” value with pERK1/2 is given as “strongly reduced”. The “inhibition of CGS21680-mediated JNK1/2 phosphorylation” value with pJNK1/2 is “strongly reduced”.

With `Nc1nc(NCCc2ccc(O)cc2)nc2nc(-c3ccco3)nn12` [ZM241385, 4-(2-[7-Amino-2-(2-furyl) [1,2,4]triazolo[2,3-a][1,3,5]triazin-5-ylamino]ethyl)phenol], the “effect on cell proliferation when tested alone” value is recorded as “did not alter cell proliferation” with MRMT-1 cells (100 nM alone); “did not alter cell proliferation” in the assay on A375 cells (100 nM alone); “did not alter cell proliferation” in the assay on A549 cells (100 nM alone, 24 h). Further, the “antagonism of CGS21680-induced cell proliferation” value with MRMT-1 cells (setting [5]), in the assay with A375 cells (setting [5]) and in the assay with A549 cells (setting [5]) was “completely block the agonist effect” in each case. In the assay on pAKT (setting [6]), the “antagonism of CGS21680-induced AKT phosphorylation” value is listed as “completely reverted”. In the assay with pERK1/2 (setting [6]), the “antagonism of CGS21680-induced ERK1/2 phosphorylation” value was “completely reverted”. Besides, the “antagonism of CGS21680-induced JNK1/2 phosphorylation” value in the assay on pJNK1/2 (setting [6]) is reported as “completely reverted”.

With `Nc1nc2ccc(Cl)cc2c2nc(-c3ccco3)nn12` [CGS15943], on A2AARs [3], the Ki came to 2.15 nM.

Consider `Nc1nc2c(cnn2CCc2ccccc2)c2nc(-c3ccco3)nn12` [SCH58261], for which affinity on A2AARs [3] was put at a Ki of 3.26 nM.

As to `CCNC(=O)[C@H]1O[C@@H](n2cnc3c(N)nc(NCCc4ccc(CCC(=O)O)cc4)nc32)[C@H](O)[C@@H]1O` [CGS21680, 2-p-(2-Carboxyethyl)phenethylamino-5′-N-ethylcarboxamido-adenosine hydrochloride hydrate], the “effect on cell proliferation” value with MRMT-1 cells (10 nM, 48 and 72 h) is listed as “raised cell vitality”; in the assay on MRMT-1 cells (100 nM, 24, 48 and 72 h), “significant stimulation”; with A375 cells (100 nM, only at 48 h) it was “stimulatory effect of cell proliferation”; in the assay on A549 cells (48 and 72 h), “not more present”; in the assay with A549 cells (24 h), “slightly increased cell proliferation”. Further, the “AKT phosphorylation time course” value with pAKT (setting [7]) is given as “started to increase after 10 min”. Also, the “ERK1/2 phosphorylation time course” value in the assay with pERK1/2 (setting [7]) is “reached a maximal effect after 5 min”. In addition, the “JNK1/2 phosphorylation time course” value in the assay with pJNK1/2 (setting [7]) was “reached a maximal effect after 5 min”.
